From patent US10206988B2, “Xenoantigen-displaying anti-cancer vaccines and method of making” (The University of Toledo, priority 2012, dated 2019)

What was measured:
female BALB/c mice [1] = experiment: Comparison of anti-Rha antibody titers and isotypes generated against Rha-Ficoll and Rha-OVA (screening against Rha-BSA); format: in vivo; settings: isotype distribution, sera screened against Rha-BSA
Procedure: (§1) 96 well plates (Immulon 4 HBX) were coated with Rha-BSA conjugate (6) (2 μg/mL) in 0.01 M PBS and incubated overnight at 4° C. The plates were washed 5 times with PBS containing 0.1% Tween-20. Blocking was achieved by incubating the plates for 1 h at room temperature with BSA in 0.01 M PBS (1 mg/mL). The plates were then washed 5 times and incubated for 1 h with serum dilutions in PBS. Unbound antibody in the serum was removed by washing and the plates were incubated for 1 h at room temperature with Horseradish Peroxidase (HRP) goat anti-mouse IgG+IgM (Jackson Immunoresearch Laboratories) diluted 5000 times in PBS/BSA. The plates were washed with TMB (3,3′,5,5′-tetramethylbenzidine). One component HRP microwell substrate (Bio FX, Owings Mills, Md.) was added and allowed to react for 10 mins. Absorbances were recorded at 620 nm and were plotted against log10 [1/serum dilution].
Two groups of five female BALB/c mice each were immunized on day 0 with Rha-Ficoll/Alum adjuvant (group A) or Rha-OVA/complete Freund's adjuvant (CFA) (group B). The mice were boosted three more times on days 14, 28, and 42 with either Rha-Ficoll/Alum (group A) or rha-OVA/incomplete Freund's adjuvant (ICF) (group B). Sera were collected separately from groups A and B after the third boost and the anti-Rha antibodies in the sera from the two groups of mice were isotyped by screening against Rha-BSA. […]

female BALB/c mice [2] = experiment: Anti-Rha antibody generation with Rha-Ficoll/Alum (ELISA against Rha-BSA); format: in vivo; settings: day 66 sera
Procedure: The 20 female BALB/c mice used for this study were divided into four groups A1, A2, B1, and B2, containing 5 mice each. Groups A1 and B1 served as the control groups and were not immunized. Groups A2 and B2 were injected subcutaneously (day 0) with a 100 μL subcutaneous injections Rha-Ficoll/Alum on days 14, 28, 42, and 56 (100 μg of Rha-Ficoll per mouse, each boost). The mice in each group A1, A2, B1, and B2 were bled on day 66 and the collected sera were tested for anti-Rha antibodies.
as §1, with “dilution]. […]” for “dilution].”

U266 cells = experiment: Tumor cell staining (FACS); format: cell-based, human; settings: 0.5 μg antibody, FITC goat anti-mouse IgG+IgM
Procedure: U266 cells (American Type Culture Collection, Manassas, Va.), were cultured in RPMI 1640 with 15% fetal calf serum (FCS). Cells were stained with purified mouse anti-human MUC1 antibodies (CD227, 0.5 μg), non-immune BALB/c mice serum (1/5 dilution) and group B2 mice serum (1/5 dilution). The cells were then stained with FITC-conjugated goat anti-mouse IgG+IgM (0.5 μg) and fluorescence was quantified with a BD FACS Calibur.
These cells express MUC1 on their surface as shown by binding with mouse anti-human MUC1 antibodies (CD 227).

| Substance | IgG3 share of anti-Rha antibodies (female BALB/c mice [1]) | IgM share of anti-Rha antibodies (female BALB/c mice [1]) | anti-Rha antibody titers in groups A2 and B2 relative to control groups (female BALB/c mice [2]) | binding to MUC1 on U266 human leukemia cells (U266 cells) |
| --- | --- | --- | --- | --- |
| 2-Aminoethyl-α-L-Rhamnopyranoside-Ficoll Conjugate [Rha-Ficoll] | 48% | 25% | 25 fold |  |
| CD 227: purified mouse anti-human CD227 (anti-human MUC1) from BD-biosciences |  |  |  | binding |
